# Experimental data reported in ChEMBL document CHEMBL5465560, “Selectivity Literature for EUbOPEN Chemogenomic Library” (2024).
# What was measured:
# [1] = target: Vascular endothelial growth factor receptor 1 (Homo sapiens) (UniProt P17948); experiment: Selectivity interaction (KinomeScan (DiscoverX)) EUB0000699a FLT1; details: at 10 µM
# [2] = target: Ribosomal protein S6 kinase alpha-5 (Homo sapiens) (UniProt O75582); experiment: Selectivity interaction (KinomeScan (DiscoverX)) EUB0000229b RPS6KA5; details: at 10 µM
# [3] = Selectivity interaction (Kinase panel (KiNativ target engagement assay in Jurkat cells)) EUB0001635a STLK6; details: Selectivity number of off-targets 0; Selectivity number of targets 233; Source Knowledge https://www.sciencedirect.com/science/article/pii/S2451945619300674?via%3Dihub; at 1 µM
# [4] = tested on: Hepatocyte growth factor receptor (Homo sapiens), P08581 [M1250T]; experiment: (§1) Selectivity interaction (KinomeScan (DiscoverX)) EUB0000666a MET; details: at 10 µM
# [5] = tested on: Hepatocyte growth factor receptor (Homo sapiens), P08581 [Y1235D]; experiment: as §1; details: at 10 µM
# [6] = target: T1, Calcium/calmodulin-dependent protein kinase type IV (Homo sapiens) (UniProt Q16566); experiment: Selectivity interaction (Kinase panel (Invitrogen)) EUB0000639a CAMK4; details: at 200 nM
# T1 sequence (whole entry): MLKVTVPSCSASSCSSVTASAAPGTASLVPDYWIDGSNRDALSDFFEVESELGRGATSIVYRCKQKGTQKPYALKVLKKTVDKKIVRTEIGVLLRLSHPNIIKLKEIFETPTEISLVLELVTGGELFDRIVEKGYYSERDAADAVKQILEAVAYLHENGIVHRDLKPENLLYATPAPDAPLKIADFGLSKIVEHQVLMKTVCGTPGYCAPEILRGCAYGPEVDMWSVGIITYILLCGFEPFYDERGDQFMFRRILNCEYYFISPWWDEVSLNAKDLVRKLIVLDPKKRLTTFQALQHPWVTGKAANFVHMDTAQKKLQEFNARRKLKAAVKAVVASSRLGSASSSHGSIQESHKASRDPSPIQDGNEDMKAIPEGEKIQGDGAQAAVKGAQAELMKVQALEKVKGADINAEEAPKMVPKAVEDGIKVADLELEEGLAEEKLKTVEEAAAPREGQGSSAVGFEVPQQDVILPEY
# [7] = target: Casein kinase I isoform gamma-3 (Homo sapiens) (UniProt Q9Y6M4); experiment: Selectivity interaction (KinomeScan (DiscoverX)) EUB0000607a CSNK1G3; details: at 10 µM
# [8] = target: T2, Serine/threonine-protein kinase Nek2 (Homo sapiens) (UniProt P51955); experiment: Selectivity interaction (KinomeScan (DiscoverX)) EUB0000045b NEK2
# T2 sequence (whole entry): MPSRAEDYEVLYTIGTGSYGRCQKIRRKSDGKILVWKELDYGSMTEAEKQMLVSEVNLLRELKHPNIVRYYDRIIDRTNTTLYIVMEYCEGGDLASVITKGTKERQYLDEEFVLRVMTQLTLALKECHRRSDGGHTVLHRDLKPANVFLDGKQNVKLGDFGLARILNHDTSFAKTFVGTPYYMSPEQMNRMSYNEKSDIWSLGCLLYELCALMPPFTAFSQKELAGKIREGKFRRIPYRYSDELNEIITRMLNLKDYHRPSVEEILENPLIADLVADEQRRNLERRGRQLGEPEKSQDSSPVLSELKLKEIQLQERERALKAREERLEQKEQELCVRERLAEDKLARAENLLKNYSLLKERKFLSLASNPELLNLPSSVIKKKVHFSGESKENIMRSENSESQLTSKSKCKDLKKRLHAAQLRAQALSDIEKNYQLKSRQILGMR
# [9] = target: T3, Mitogen-activated protein kinase kinase kinase 7 (Homo sapiens) (UniProt O43318); experiment: Selectivity interaction (KinomeScan (DiscoverX)) EUB0001619a MAP3K7; details: at 1 µM
# T3 sequence (whole entry): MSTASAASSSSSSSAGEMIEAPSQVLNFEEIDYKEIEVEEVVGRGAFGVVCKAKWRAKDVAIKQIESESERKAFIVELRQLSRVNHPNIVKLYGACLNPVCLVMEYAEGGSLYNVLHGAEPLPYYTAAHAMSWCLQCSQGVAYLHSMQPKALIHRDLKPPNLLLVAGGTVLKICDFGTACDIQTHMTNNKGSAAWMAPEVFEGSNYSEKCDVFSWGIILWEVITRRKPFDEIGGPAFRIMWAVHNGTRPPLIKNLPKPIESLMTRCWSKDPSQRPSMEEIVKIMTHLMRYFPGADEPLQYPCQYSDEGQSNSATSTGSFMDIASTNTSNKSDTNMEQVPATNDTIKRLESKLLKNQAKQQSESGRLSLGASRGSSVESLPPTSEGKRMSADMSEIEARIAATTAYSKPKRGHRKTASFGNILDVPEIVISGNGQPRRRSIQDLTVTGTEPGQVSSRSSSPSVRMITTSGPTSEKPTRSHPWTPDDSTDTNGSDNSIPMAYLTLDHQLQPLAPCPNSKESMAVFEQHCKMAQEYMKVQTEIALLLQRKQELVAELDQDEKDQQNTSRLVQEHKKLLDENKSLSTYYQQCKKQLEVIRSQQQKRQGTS
# [10] = target: T4, Mitogen-activated protein kinase kinase kinase kinase 2 (Homo sapiens) (UniProt Q12851); experiment: Selectivity interaction (ActivX KiNativ screen (ex vivo kinase selectivity in human PBMCs)) EUB0001619a MAP4K2; assay type: cell-based; details: PBMC, at 1 µM
# T4 sequence (whole entry): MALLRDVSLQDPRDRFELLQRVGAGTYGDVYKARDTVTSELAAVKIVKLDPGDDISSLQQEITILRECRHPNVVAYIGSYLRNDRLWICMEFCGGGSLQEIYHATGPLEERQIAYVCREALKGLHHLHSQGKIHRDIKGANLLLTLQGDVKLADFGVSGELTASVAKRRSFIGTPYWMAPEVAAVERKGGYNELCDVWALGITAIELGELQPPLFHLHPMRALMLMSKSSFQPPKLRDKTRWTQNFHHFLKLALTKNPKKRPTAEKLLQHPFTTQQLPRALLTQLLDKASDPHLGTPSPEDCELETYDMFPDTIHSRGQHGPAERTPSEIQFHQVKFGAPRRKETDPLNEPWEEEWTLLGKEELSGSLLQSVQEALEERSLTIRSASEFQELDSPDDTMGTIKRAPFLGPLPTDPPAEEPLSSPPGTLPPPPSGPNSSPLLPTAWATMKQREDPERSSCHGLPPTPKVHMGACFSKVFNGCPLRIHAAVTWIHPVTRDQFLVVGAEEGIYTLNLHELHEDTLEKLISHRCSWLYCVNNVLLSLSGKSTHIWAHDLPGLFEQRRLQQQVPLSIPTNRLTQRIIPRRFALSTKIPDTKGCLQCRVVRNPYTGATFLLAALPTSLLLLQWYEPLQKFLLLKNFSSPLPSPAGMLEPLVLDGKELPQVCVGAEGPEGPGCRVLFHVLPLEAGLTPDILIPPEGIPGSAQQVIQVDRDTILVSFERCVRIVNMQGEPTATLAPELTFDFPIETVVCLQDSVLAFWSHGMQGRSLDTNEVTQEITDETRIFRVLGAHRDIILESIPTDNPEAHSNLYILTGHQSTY
# Sequence of Casein kinase I isoform gamma-3 (Homo sapiens) (Q9Y6M4 whole entry, looked up, canonical isoform): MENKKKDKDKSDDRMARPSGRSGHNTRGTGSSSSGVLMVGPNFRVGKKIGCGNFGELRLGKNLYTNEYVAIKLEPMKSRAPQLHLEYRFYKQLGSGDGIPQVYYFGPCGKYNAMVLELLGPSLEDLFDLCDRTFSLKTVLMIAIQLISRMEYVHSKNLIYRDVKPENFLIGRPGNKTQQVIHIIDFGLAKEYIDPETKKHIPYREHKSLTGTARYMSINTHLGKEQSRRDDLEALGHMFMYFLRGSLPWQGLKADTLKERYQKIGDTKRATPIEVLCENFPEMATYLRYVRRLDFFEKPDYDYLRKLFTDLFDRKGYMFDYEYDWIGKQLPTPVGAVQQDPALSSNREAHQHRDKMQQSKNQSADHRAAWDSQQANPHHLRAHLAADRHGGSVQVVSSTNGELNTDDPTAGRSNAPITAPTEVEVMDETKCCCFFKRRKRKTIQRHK
# Sequence of Hepatocyte growth factor receptor (Homo sapiens), P08581 [M1250T] (P08581 whole entry M1250T): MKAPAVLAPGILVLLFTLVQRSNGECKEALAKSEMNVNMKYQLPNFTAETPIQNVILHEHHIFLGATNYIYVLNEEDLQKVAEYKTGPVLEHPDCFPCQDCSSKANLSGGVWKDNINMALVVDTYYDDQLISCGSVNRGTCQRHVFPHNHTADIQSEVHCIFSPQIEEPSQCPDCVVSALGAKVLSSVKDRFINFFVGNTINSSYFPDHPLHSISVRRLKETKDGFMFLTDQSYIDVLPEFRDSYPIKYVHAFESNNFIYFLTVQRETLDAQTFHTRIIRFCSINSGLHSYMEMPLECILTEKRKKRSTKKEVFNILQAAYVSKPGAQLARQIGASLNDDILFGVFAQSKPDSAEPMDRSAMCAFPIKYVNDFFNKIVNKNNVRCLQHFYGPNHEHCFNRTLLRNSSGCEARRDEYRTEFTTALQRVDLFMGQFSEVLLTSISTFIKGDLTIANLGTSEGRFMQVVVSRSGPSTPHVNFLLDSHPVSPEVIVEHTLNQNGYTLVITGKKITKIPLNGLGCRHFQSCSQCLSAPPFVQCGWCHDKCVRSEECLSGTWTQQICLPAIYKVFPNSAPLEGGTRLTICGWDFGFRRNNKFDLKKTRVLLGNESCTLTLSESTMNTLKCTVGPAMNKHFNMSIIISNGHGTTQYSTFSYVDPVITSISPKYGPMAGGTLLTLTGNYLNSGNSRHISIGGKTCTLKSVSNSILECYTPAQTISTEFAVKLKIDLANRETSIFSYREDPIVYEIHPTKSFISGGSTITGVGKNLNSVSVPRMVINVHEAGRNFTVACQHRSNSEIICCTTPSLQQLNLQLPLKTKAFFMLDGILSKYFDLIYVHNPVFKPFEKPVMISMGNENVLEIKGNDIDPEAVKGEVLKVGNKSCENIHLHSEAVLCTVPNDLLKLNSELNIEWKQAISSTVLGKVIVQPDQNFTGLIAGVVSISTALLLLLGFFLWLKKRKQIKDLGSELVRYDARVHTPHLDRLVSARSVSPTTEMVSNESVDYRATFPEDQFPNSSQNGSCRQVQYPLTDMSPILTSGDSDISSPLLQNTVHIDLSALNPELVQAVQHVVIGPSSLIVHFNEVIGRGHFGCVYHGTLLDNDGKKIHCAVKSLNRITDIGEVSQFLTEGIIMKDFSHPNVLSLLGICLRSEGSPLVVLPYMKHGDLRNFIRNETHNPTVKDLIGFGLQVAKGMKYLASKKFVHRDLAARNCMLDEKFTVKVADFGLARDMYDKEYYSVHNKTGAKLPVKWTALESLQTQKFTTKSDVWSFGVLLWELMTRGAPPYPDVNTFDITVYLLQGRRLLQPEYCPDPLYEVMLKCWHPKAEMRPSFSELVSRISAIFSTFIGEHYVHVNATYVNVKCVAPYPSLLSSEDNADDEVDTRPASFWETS
# Sequence of Vascular endothelial growth factor receptor 1 (Homo sapiens) (P17948 whole entry): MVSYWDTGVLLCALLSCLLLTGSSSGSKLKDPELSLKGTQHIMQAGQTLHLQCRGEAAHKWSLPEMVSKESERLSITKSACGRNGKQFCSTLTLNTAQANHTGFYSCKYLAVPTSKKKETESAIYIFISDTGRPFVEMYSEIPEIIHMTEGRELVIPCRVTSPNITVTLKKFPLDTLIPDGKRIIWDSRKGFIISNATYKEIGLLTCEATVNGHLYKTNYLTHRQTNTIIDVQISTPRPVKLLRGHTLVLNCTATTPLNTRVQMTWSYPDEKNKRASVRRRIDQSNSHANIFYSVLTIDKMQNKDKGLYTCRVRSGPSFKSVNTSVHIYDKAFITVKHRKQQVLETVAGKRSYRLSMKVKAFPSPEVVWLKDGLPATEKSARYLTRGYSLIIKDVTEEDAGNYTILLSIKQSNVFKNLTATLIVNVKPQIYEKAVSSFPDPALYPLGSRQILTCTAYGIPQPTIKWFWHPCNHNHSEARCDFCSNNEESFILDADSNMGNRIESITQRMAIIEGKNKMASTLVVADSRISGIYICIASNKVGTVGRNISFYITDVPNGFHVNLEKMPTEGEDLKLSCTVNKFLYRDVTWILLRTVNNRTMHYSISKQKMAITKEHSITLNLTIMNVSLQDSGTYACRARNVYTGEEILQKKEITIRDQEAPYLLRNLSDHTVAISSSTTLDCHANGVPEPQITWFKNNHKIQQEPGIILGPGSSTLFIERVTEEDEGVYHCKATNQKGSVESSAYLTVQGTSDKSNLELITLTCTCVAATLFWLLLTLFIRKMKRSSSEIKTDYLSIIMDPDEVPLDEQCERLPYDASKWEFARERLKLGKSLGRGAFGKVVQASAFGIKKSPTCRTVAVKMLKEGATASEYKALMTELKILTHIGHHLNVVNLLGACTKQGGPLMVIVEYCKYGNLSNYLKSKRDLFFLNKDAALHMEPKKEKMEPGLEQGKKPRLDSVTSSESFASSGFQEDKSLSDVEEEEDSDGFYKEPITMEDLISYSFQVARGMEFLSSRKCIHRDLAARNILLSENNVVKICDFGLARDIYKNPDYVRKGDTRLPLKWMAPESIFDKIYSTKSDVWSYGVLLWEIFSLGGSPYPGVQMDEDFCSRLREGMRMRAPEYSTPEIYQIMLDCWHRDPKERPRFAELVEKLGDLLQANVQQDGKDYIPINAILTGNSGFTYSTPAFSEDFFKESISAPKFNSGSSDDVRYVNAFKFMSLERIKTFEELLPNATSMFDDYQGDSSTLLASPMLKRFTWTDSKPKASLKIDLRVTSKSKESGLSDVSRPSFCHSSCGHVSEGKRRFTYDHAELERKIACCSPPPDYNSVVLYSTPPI
# Sequence of Hepatocyte growth factor receptor (Homo sapiens), P08581 [Y1235D] (P08581 whole entry Y1235D): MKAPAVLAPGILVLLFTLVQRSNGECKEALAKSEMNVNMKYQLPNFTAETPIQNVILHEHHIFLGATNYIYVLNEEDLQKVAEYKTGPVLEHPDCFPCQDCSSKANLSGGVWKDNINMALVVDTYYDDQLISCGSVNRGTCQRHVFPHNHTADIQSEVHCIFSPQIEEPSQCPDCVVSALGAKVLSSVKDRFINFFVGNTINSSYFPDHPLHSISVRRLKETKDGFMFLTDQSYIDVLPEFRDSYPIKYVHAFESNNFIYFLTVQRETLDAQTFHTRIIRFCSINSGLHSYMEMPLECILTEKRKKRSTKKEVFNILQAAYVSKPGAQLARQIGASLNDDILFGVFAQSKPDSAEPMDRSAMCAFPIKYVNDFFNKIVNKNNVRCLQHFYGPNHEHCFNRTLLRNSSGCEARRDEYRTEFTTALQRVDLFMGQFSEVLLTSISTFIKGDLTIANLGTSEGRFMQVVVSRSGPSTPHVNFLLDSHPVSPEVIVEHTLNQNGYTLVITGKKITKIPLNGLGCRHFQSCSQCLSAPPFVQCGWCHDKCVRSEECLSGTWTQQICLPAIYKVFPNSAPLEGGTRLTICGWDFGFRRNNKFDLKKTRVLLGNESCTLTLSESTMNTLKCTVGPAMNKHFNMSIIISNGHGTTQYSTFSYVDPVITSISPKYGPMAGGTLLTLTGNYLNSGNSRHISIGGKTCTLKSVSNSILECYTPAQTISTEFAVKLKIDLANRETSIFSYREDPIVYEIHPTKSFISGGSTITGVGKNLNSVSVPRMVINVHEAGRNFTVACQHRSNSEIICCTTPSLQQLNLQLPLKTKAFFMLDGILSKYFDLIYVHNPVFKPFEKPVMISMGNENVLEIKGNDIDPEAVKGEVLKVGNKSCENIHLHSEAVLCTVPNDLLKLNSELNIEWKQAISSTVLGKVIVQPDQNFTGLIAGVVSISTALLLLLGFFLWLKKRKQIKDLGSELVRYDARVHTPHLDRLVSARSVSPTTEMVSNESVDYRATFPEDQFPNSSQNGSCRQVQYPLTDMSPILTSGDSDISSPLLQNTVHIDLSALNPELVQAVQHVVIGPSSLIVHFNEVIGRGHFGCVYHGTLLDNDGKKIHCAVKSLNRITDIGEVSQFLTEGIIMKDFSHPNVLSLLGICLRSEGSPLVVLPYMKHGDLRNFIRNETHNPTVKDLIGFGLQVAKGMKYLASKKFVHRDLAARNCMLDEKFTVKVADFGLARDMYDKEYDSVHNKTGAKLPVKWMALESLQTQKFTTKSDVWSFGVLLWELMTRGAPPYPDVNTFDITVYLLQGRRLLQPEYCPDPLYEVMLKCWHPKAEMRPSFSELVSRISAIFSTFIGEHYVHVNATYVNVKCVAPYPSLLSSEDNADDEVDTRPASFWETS
compound,measurement,setting,value
CCN(CC)CCCCNc1ncc2cc(-c3cc(OC)cc(OC)c3)c(NC(=O)NC(C)(C)C)nc2n1,% of control,[1],8%
COc1cc(N(C)c2ccnc3ccc(C(F)(F)F)cc23)cc(OC)c1OC,% binding,[2],87%
C=CC(=O)Nc1ccc(C(=O)Nc2[nH]nc3c2CN(C(=O)N[C@H](CN(C)C)c2ccccc2)C3(C)C)cc1,% of engagement,[3],-0.5%
O=C(NOC[C@H](O)CO)c1ccc(F)c(F)c1Nc1ccc(I)cc1F,% of control,[4],92%
same,% of control,[5],100%
CC[C@@H]1[C@H](F)C(=O)N[C@@H]1COc1nccc2cc(C(N)=O)c(OC)cc12 [ZIMLOVISERTIB],% of inhibition,[6],-8.2%
CNC(=O)Nc1ccc(-c2nc(N3CC4CCC(C3)O4)c3cnn(C4CCC5(CC4)OCCO5)c3n2)cc1,% of control,[7],48%
C=CC(=O)Nc1cc(-n2c(=O)ccc3cnc4ccc(-c5ccc(NS(C)(=O)=O)cc5)cc4c32)ccc1C,% of control,[8]; at 1 µM,79%
same,% of control,[8]; at 10 µM,85%
N#Cc1cccc(-c2c[nH]c3ncnc(N4CCOCC4)c23)c1,% of control,[9],55%
same,% of inhibition,[10],24%
